Experimental findings from US20260000079A1, “COMPOSITIONS AND METHODS FOR MODULATING IMMUNITY IN PLANTS” (BOYCE THOMPSON INSTITUTE FOR PLANT RESEARCH, INC., priority 2019, published 2026) are described below.

SMILES strings stand for the structures.

Data set [1] has as its system Arabidopsis wildtype and ibr10, ech2, ech2ibr10, or acx1acx5 mutants. In kind it is in vivo, Arabidopsis thaliana. The settings on record: roots treated with 1 μM ascr #18. The protocol:
FIG. 3A provides a comparison of peroxisomal β-oxidation (pβo) pathways and associated enzymes involved in the conversion of indole-3-butyric acid (IBA)-to-indole acetic acid (IAA) in Arabidopsis and ascaroside biosynthesis in C. elegans. FIG. 3B provides LC-MS analysis of Arabidopsis seedlings treated with 1 μM ascr #18 for 24 hours before sample extraction, comparing ascr #9 production in wildtype and ibr10, ech2, ech2ibr10, or acx1acx5 mutants. FIG. 3C provides a comparison of ascaroside abundances in Arabidopsis wildtype and acx1acx5 roots treated with 1 μM ascr #18. Data are averages±SEM (n=5); n.d.=not detected. FIG. 3D provides RNAseq analysis of ten day-old Arabidopsis wildtype and acx1acx5 mutant roots, plotted as transcript abundance. Data are averages±s.d (n=6).
Arabidopsis thaliana mutant genotypes in the Col-0 background, ibr10-1, ech2-1, ibr10-1ech2-1, and acx1-2acx5-1, were obtained from Rice University (Houston, TX) (Strader, et al. (2011) Plant Cell 23:984-999; Adham, et al. (2005) Plant J. 41:859-874).
To test whether ascr #18 is metabolized via pβo in plants, Arabidopsis mutants impaired in key enzymes of this pathway were analyzed (FIG. 3B). […] In contrast, two other putative po genes, ibr10 and ech2, a putative enoyl-CoA hydratases (Strader, et al. (2011) Plant Cell 23:984-999; Adham, et al. (2005) Plant J. 41:859-874; Zolman, et al. (2008) Genetics 180(1): 237-51), are not required for ascr #18 metabolism in Arabidopsis. ACXs participate in the […] step of pβo by introducing α,β-unsaturation in the side-chain (Von Reuss, et al. (2012) J. Am. Chem. Soc. 134:1817-1824; Strader, et al. (2011) Plant Cell 23:984-999). […] These observations indicate that ascr #18 metabolism in plants into shorter-chained ascarosides proceeds via pβo, and that ACX1 and/or ACX5 are strictly required for chain shortening of ascr #10, whereas the first chain-shortening step from ascr #18 to ascr #10 may involve additional acyl-CoA oxidases.

In data set [2] the test system is Arabidopsis root exudates. Description: LC-MS of root exudates of ascr #18-treated Arabidopsis seedlings. It counts as in vivo, Arabidopsis thaliana. The settings on record: for secretion of ascr #18 metabolites via roots: ascr #18-treated wildtype, 6 hours treatment. Here is the method: (§1) Data are average±SEM (n=6), n.d.=not detected. […] Exudates from approximately 40 seedlings were collected in distilled water and pooled. Abundances of ascarosides are shown as the peak area, as measured by LC-MS. Data are average±SEM (n=3); n.d.=not detected. FIGS. 5C and 5D show the relative abundances of ascarosides in root exudates of eight-day old tomato seedlings treated with 10 nM (FIG. 5C) or 1000 nM (FIG. 5D) ascr #18 for 6 hours. Exudates from approximately 10 seedlings were collected in distilled water and pooled. Abundances of ascarosides are shown as the peak area, as measured by LC-MS. Data are average±SEM (n=3); n.d.=not detected. FIG. 5E provides the relative abundances of ascr #10, ascr #1, and ascr #9 in the growth media of eight-day old tomato seedlings supplemented with 1 μM ascr #18. Ten-gram media samples were collected at different time points over a 48 hour period for metabolome extraction. Abundances of ascarosides are shown as the peak area, as measured by LC-MS.
(§2) To test this possibility, root-secreted metabolites of ascr #18- and mock-treated Arabidopsis were compared (FIG. 5A). For this experiment, 10-day old Arabidopsis seedlings were treated in growth media supplemented with ascr #18 for 6 hours prior to collection of exudates from roots submerged in water. […] Analogous results were obtained in experiments with tomato roots (FIG. 5C, 5D).

In a further data set the test system is tomato root exudates. Nature of the data set: LC-MS of root exudates and growth media of ascr #18-treated tomato seedlings. In kind it is in vivo, Solanum lycopersicum. The protocol: as §1, §2

For `C[C@H](CCCCC(=O)O)O[C@@H]1O[C@@H](C)[C@H](O)C[C@H]1O` [ascr #1], the “ascaroside levels in ascr #18-treated acx1acx5 mutant compared with wildtype” value in data set [1] is reported as “not detected”. The “secretion of ascr #18 metabolites via roots” value in data set [2] was “secretion”.

For `C[C@H](CCCCCCC(=O)O)O[C@@H]1O[C@@H](C)[C@H](O)C[C@H]1O` [ascr #10], the “ascaroside levels in ascr #18-treated acx1acx5 mutant compared with wildtype” value in data set [1] is “smaller amounts”. Besides, the “relative abundance among root-excreted ascr #18 metabolites” value (in data set [2] (Arabidopsis); with tomato root exudates) was “least abundant” each time. The “ascarosides in root exudates of acx1acx5” value in data set [2] (acx1acx5 seedlings, 10 nM ascr #18 for 6 hours) is on record as “detected”. For the same molecule, in data set [2], the “secretion of ascr #18 metabolites via roots” value was “secretion”.
